The text below walks through data of patent US8293781B2, “Indole derivatives having cPLA2 inhibiting activity and applications and production methods of the same” (Daiichi Sankyo Company, Limited, priority 2007, dated 2012).

Counter-ions that a name gives are not always drawn.

The target in one assay is T1, cPLA2 crudely purified from the cytoplasm fraction of U937 (Homo sapiens, UniProt P47712).
T1 construct: cPLA2 crudely purified from the cytoplasm fraction of U937; endogenous in cells; host or cells: U937 cells (cytoplasm fraction, crude purification)
T1 sequence (P47712 1-749): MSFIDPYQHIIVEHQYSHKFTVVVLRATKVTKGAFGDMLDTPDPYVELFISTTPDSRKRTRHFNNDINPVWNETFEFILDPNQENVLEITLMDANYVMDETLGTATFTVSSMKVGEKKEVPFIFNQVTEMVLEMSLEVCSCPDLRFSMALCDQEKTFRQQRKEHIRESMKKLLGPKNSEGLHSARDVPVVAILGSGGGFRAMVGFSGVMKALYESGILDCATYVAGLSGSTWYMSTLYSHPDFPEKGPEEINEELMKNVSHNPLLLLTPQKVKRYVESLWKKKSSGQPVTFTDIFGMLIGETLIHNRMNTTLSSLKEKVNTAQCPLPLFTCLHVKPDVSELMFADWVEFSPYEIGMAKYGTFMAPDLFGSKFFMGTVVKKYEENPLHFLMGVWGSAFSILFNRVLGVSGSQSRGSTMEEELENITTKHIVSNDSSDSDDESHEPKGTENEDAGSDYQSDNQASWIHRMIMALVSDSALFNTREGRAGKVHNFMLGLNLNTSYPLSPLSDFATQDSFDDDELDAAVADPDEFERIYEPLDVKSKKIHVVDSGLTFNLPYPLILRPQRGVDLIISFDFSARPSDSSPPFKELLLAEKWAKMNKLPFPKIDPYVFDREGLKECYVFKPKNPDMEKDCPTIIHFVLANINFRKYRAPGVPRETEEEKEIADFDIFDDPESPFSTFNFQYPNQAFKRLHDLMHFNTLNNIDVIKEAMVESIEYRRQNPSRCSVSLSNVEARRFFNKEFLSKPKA
In words: Measurement of cPLA2 inhibitory activity (release of [14C]-arachidonic acid from phosphatidyl choline liposome).
Conditions: not given
The format is biochemical. In short, it runs like this:
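The read-out is radioactivity from extracted [14C]-arachidonic acid, freed over 60 min at 37° C from liposomes of 14C-arachidonyl phosphatidylcholine (10 μM PC in the added solution). Buffer was 50 mM HEPES pH 7.5 with Ca2+, DTT, NaCl and BSA. IC50 was derived from inhibition relative to enzyme control minus no-enzyme control.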
Compound `O=C(O)/C=C/c1ccc2c(c1)c(C(=O)c1ccccc1)cn2-c1ccccc1` [Example 3, (2E)-3-(3-benzoyl-1-phenyl-1H-indol-5-yl)-2-propenoic acid] yielded an IC50 of 494 nM.

With `O=C(O)CCc1ccc2c(c1)c(C(=O)Cc1ccc(F)cc1)cn2-c1ccccc1` [Example 61, 3-{3-[(4-fluorophenyl)acetyl]-1-phenyl-1H-indol-5-yl}propanoic acid], the IC50 is 653 nM.

Consider `O=C(O)/C=C/c1ccc2c(c1)c(C(=O)Cc1ccc(F)cc1)cn2-c1ccccc1` [Example 60, (2E)-3-{3-[(4-fluorophenyl)acetyl]-1-phenyl-1H-indol-5-yl}-2-propenoic acid], for which the IC50 was 5720 nM.

In turn, `COc1ccc(CC(=O)c2cn(-c3ccccc3)c3ccc(/C=C/C(=O)O)cc23)cc1` [Example 64, (2E)-3-{3-[(4-methoxyphenyl)acetyl]-1-phenyl-1H-indol-5-yl}-2-propenoic acid] yielded an IC50 of 19600 nM.

The compound `O=C(O)CCc1ccc2c(c1)c(C(=O)Cc1ccc(Cl)cc1)cn2-c1ccccc1` [Example 57, 3-{3-[(4-chlorophenyl)acetyl]-1-phenyl-1H-indol-5-yl}propanoic acid] showed an IC50 of 1390 nM.

The same assay, now with this note: cPLA2 from U937 cytoplasm fraction, [14C]arachidonyl-phosphatidyl choline liposome, 37° C., 60 minutes; read-out: cPLA2 inhibitory activity, 50% inhibiting concentration IC50.
For the compound `COc1cccc(-n2cc(CCc3ccccc3)c3cc(CCC(=O)O)ccc32)c1` [Example 107, 3-[1-(3-methoxyphenyl)-3-(2-phenylethyl)-1H-indol-5-yl]propanoic acid 2-amino-2-(hydroxymethyl)propane-1,3-diol salt (1:1)], the IC50 is 195 nM.

Turning to `O=C(O)CCc1ccc2c(c1)c(CCc1ccccc1)cn2-c1ccc(C(=O)O)cc1` [Example 79, 4-[5-(2-carboxyethyl)-3-(2-phenylethyl)-1H-indol-1-yl]benzoic acid], the IC50 is 180 nM.

Consider `O=C(O)CCc1ccc2c(c1)c(CCc1ccccc1)cn2-c1ccc(C(F)(F)F)cn1` [Example 205, 3-{3-(2-phenylethyl)-1-[5-(trifluoromethyl)pyridin-2-yl]-1H-indol-5-yl}propanoic acid], for which the IC50 came to 133 nM.

Regarding `O=C(O)CCc1ccc2c(c1)c(CCc1ccccc1)cn2-c1ccc(OC(F)F)cc1` [Example 189, 3-{1-[4-(difluoromethoxy)phenyl]-3-(2-phenylethyl)-1H-indol-5-yl}propanoic acid], the IC50 came to 43 nM.

Turning to `O=C(O)CCc1ccc2c(c1)c(CCc1ccccc1)cn2-c1ccc(OCCc2ccccn2)cc1` [Example 251, 3-{3-(2-phenylethyl)-1-[4-(2-pyridin-2-ylethoxy)phenyl]-1H-indol-5-yl}propanoic acid], the IC50 worked out at 9 nM.

`O=C(O)CCc1ccc2c(c1)c(CCc1ccccc1)cn2-c1ccc(OC2CCCCO2)cc1` (stereo not drawn) [Example 213, 3-{3-(2-phenylethyl)-1-[4-(tetrahydro-2H-pyran-2-yloxy)phenyl]-1H-indol-5-yl}propanoic acid]: the IC50 worked out at 15 nM.

`CCOc1ccc(-n2cc(CCc3ccccc3)c3cc(CCC(=O)N(C)OC)ccc32)cc1` [Example 116, 3-[1-(4-ethoxyphenyl)-3-(2-phenylethyl)-1H-indol-5-yl]-N-methoxy-N-methylpropanamide]: the IC50 is 2170 nM.

For `NC(=O)CCc1ccc2c(c1)c(CCc1ccccc1)cn2-c1ccccc1` [Example 22, 3-[1-phenyl-3-(2-phenylethyl)-1H-indol-5-yl]propanamide], the IC50 was above 100000 nM.

Regarding `O=C(O)CCc1ccc2c(c1)c(CCc1ccccn1)cn2-c1ccc(O)cc1` [Example 269, 3-[1-(4-hydroxyphenyl)-3-(2-pyridin-2-ylethyl)-1H-indol-5-yl]propanoic acid hydrochloride], the IC50 was 77 nM.

Turning to `O=C(O)CCc1ccc2c(c1)c(CCc1ccccc1)cn2-c1ccc([N+](=O)[O-])cc1` [Example 83, 3-[1-(4-nitrophenyl)-3-(2-phenylethyl)-1H-indol-5-yl]propanoic acid], the IC50 was 101 nM.

Regarding `COc1ccccc1-n1cc(CCc2ccccc2)c2cc(CCC(=O)O)ccc21` [Example 109, 3-[1-(2-methoxyphenyl)-3-(2-phenylethyl)-1H-indol-5-yl]propanoic acid 2-amino-2-(hydroxymethyl)propane-1,3-diol salt (1:1)], the IC50 amounted to 224 nM.

Take `O=C(O)CCc1ccc2c(c1)c(CCCc1ccccc1)cn2-c1ccc(OCc2ccccc2)cc1` [Example 339, 3-{1-[4-(benzyloxy)phenyl]-3-(3-phenylpropyl)-1H-indol-5-yl}propanoic acid]: the IC50 was found to be 460 nM.

Consider `CC(Cc1cn(-c2ccccc2)c2ccc(/C=C/C(=O)O)cc12)c1ccccc1` (stereo not drawn) [Example 33, (2E)-3-[1-phenyl-3-(2-phenylpropyl)-1H-indol-5-yl]-2-propenoic acid], for which the IC50 was 662 nM.

As to `O=C(O)CCc1ccc2c(c1)c(CCc1ccccc1)cn2-c1ccc(OCc2cccnc2)cc1` [Example 249, 3-{3-(2-phenylethyl)-1-[4-(pyridin-3-ylmethoxy)phenyl]-1H-indol-5-yl}propanoic acid hydrochloride], the IC50 amounted to 26 nM.

With `CCCOc1cccc(-n2cc(CCc3ccccc3)c3cc(CCC(=O)O)ccc32)c1` [Example 161, 3-[3-(2-phenylethyl)-1-(3-propoxyphenyl)-1H-indol-5-yl]propanoic acid], the IC50 was determined as 813 nM.

As for `O=C(O)CCc1ccc2c(c1)c(CCc1ccccc1)cn2-c1ccc(CO)cc1` [Example 219, 3-{1-[4-(hydroxymethyl)phenyl]-3-(2-phenylethyl)-1H-indol-5-yl}propanoic acid], the IC50 stood at 147 nM.

`O=C(O)CCc1ccc2c(c1)c(CCc1ccccc1)cn2-c1ccc(COC(F)F)cc1` [Example 293, 3-[1-{4-[(difluoromethoxy)methyl]phenyl}-3-(2-phenylethyl)-1H-indol-5-yl]propanoic acid]: the IC50 came out at 191 nM.

Take `O=C(O)CCc1ccc2c(c1)c(CCc1ccccc1)cn2-c1ccc(CO)cc1` [Example 220, 3-{1-[4-(hydroxymethyl)phenyl]-3-(2-phenylethyl)-1H-indol-5-yl}propanoic acid 2-amino-2-(hydroxymethyl)propane-1,3-diol salt (1:1)]: the IC50 amounted to 146 nM.

Take `O=C(O)/C=C/c1ccc2c(c1)c(CCc1ccccn1)cn2-c1ccc(OCc2ccccc2)cc1` [Example 267, (2E)-3-{1-[4-(benzyloxy)phenyl]-3-(2-pyridin-2-ylethyl)-1H-indol-5-yl}-2-propenoic acid]: the IC50 amounted to 110 nM.

For `O=C(O)/C=C/c1ccc2c(c1)c(CCc1ccccc1)cn2-c1ccc(OCc2ccccc2)cc1` [Example 144, (2E)-3-{1-[4-(benzyloxy)phenyl]-3-(2-phenylethyl)-1H-indol-5-yl}-2-propenoic acid], the IC50 was determined as 42 nM.

As for `Nc1ccccc1-n1cc(CCc2ccccc2)c2cc(CCC(=O)O)ccc21` [Example 151, 3-[1-(2-aminophen 1)-3-(2-phenylethyl)-1H-indol-5-yl]propanoic acid], the IC50 turned out to be 185 nM.

In the case of `O=C(O)CCc1ccc2c(c1)c(CCc1ccccc1)cn2-c1ccc(OCCN2CCCC2)cc1` [Example 222, 3-{3-(2-phenylethyl)-1-[4-(2-pyrrolidin-1-ylethoxy)phenyl]-1H-indol-5-yl}propanoic acid], the IC50 came to 49 nM.

With `COc1cccc(CCc2cn(-c3ccccc3)c3ccc(CCC(=O)O)cc23)c1` [Example 68, 3-{3-[2-(3-methoxyphenyl)ethyl]-1-phenyl-1H-indol-5-yl}propanoic acid 2-amino-2-(hydroxymethyl)propane-1,3-diol salt (1:1)], the IC50 is 1000 nM.

Turning to `O=C(O)CCc1ccc2c(c1)c(Cc1ccccc1)cn2-c1ccccc1` [Example 8, 3-(3-benzyl-1-phenyl-1H-indol-5-yl)propanoic acid], the IC50 amounted to 182 nM.

For the compound `CS(=O)(=O)c1ccc(-n2cc(CCc3ccccc3)c3cc(CCC(=O)O)ccc32)cc1` [Example 326, 3-{1-[4-(methylsulfonyl)phenyl]-3-(2-phenylethyl)-1H-indol-5-yl}propanoic acid], the IC50 came out at 486 nM.

On to `O=C(O)CCc1ccc2c(c1)c(CCc1ccccc1)cn2-c1ccccc1` [Example 16, 3-[1-phenyl-3-(2-phenylethyl)-1H-indol-5-yl]propanoic acid], for which the IC50 is 75 nM.

As for `O=C(O)/C=C/c1ccc2c(c1)c(CCc1ccccn1)cn2-c1ccccc1` [Example 263, (2E)-3-[1-phenyl-3-(2-pyridin-2-ylethyl)-1H-indol-5-yl]-2-propenoic acid], the IC50 came to 1440 nM.

Take `CC(=O)Nc1ccc(-n2cc(CCc3ccccc3)c3cc(CCC(=O)O)ccc32)nc1` [Example 140, 3-{1-[5-(acetylamino)-2-pyridinyl]-3-(2-phenylethyl)-1H-indol-5-yl}propanoic acid]: the IC50 worked out at 117 nM.
